Experimental data reported in US20100004234A1, “SPECIFIC KINASE INHIBITORS” (Kosan Biosciences Incorporated, priority 2004, published 2010).

Assays:
Experiment in all cases: Kinase panel, residual activity
Type in all cases: biochemical
Details in all cases: read-out: Percent residual activity
[1] = molecular target: CK2(h) (Homo sapiens, UniProt P68400)
Method: (§1) In this panel of 124 kinases, 18 of the 19 kinases identified as having an active site cysteine were inhibited to some extent by hypothemycin at a concentration of 0.2 μM and/or 2 μM.

[2] = molecular target: MAPK1(h) (Homo sapiens, UniProt P27361)
Sequence of MAPK1(h) (P27361 whole entry): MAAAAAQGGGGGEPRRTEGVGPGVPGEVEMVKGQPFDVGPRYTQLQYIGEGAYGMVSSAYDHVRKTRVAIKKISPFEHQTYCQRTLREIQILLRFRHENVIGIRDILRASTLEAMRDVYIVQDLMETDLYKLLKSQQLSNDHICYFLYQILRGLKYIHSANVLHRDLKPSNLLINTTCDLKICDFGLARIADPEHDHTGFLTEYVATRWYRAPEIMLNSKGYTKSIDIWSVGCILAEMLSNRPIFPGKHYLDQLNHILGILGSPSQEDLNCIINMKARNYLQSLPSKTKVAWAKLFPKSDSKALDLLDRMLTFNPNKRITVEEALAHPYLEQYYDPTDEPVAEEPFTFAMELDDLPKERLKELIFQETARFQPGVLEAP
Method: as §1

[3] = molecular target: TrkA(h) (Homo sapiens, UniProt P04629)
Sequence of TrkA(h) (P04629 33-796): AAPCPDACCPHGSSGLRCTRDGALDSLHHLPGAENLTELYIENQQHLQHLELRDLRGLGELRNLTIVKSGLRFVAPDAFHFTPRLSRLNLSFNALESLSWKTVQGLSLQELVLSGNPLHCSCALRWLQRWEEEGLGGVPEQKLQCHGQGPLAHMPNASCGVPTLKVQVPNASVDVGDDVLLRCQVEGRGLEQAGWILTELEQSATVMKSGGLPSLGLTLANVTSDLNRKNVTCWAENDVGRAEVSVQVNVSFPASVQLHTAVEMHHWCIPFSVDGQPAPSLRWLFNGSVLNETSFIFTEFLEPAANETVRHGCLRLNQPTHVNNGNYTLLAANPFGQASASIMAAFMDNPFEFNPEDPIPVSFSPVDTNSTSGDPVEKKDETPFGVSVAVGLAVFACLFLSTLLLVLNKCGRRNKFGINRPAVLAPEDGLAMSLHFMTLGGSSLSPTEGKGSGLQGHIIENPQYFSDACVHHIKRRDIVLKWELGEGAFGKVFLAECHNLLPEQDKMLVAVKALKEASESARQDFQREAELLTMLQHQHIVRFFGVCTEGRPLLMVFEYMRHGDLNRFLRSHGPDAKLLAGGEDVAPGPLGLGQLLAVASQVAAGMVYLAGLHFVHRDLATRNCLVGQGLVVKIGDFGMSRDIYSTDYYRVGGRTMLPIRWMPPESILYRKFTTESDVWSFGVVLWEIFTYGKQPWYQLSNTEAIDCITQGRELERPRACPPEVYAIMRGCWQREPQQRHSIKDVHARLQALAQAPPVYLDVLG
Method: as §1

[4] = molecular target: Abl(h) (Homo sapiens, UniProt P00519)
Method: as §1

[5] = molecular target: SAPK2a(h) (Homo sapiens, UniProt Q16539)
Method: as §1

[6] = molecular target: MAPKAP-K2(h) (Homo sapiens, UniProt P49137)
Method: as §1

[7] = molecular target: SGK(h) (Homo sapiens, UniProt O00141)
Method: as §1

[8] = molecular target: cKit(h) (Homo sapiens, UniProt P10721)
Sequence of cKit(h) (P10721 26-976): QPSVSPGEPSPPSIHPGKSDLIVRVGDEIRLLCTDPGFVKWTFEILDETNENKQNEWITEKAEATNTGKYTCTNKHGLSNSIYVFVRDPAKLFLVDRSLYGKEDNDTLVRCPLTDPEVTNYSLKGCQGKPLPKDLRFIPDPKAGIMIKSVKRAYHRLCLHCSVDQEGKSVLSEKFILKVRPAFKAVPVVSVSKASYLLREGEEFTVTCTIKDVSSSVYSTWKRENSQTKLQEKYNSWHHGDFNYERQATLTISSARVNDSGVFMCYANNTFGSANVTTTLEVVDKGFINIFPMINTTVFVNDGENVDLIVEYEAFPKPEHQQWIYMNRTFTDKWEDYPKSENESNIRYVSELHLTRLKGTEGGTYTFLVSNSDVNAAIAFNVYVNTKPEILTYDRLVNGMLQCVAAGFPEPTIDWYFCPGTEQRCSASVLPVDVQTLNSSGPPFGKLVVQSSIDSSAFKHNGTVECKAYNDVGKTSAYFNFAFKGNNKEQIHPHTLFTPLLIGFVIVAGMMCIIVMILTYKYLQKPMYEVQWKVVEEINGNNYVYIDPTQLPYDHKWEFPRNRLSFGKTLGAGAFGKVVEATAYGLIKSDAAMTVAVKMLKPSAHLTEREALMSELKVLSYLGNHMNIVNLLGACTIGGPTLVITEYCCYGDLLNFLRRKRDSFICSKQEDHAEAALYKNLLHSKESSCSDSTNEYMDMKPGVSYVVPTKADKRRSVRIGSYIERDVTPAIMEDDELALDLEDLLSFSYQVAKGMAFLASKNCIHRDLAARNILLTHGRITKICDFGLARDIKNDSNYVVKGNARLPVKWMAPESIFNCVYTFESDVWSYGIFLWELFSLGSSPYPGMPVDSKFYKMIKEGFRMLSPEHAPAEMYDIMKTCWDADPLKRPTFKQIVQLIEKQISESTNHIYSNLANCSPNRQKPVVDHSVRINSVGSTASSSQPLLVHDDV
Method: as §1

[9] = molecular target: Bmx(h) (Homo sapiens, UniProt P51813)
Method: as §1

[10] = molecular target: IGF-1R(h) (Homo sapiens, UniProt P08069)
Method: as §1

[11] = molecular target: PKCβI(h) (Homo sapiens, UniProt P05771)
Method: as §1

[12] = molecular target: SAPK4(h) (Homo sapiens, UniProt O15264)
Method: as §1

[13] = molecular target: PKCθ(h) (Homo sapiens, UniProt Q04759)
Method: as §1

[14] = molecular target: PKD2(h) (Homo sapiens, UniProt Q9BZL6)
Method: as §1

[15] = molecular target: ZAP-70(h) (Homo sapiens, UniProt P43403)
Method: as §1

[16] = molecular target: Flt3(h) (Homo sapiens, UniProt P36888)
Method: as §1

[17] = molecular target: EphB4(h) (Homo sapiens, UniProt P54760)
Method: as §1

[18] = molecular target: JNK3(h) (Homo sapiens, UniProt P53779)
Method: as §1

[19] = molecular target: SAPK2b(h) (Homo sapiens, UniProt Q15759)
Method: as §1

[20] = molecular target: PDGFRα(h) (Homo sapiens, UniProt P16234)
Method: as §1

[21] = molecular target: PDGFRβ(h) (Homo sapiens, UniProt P09619)
Sequence of PDGFRβ(h) (P09619 33-1106): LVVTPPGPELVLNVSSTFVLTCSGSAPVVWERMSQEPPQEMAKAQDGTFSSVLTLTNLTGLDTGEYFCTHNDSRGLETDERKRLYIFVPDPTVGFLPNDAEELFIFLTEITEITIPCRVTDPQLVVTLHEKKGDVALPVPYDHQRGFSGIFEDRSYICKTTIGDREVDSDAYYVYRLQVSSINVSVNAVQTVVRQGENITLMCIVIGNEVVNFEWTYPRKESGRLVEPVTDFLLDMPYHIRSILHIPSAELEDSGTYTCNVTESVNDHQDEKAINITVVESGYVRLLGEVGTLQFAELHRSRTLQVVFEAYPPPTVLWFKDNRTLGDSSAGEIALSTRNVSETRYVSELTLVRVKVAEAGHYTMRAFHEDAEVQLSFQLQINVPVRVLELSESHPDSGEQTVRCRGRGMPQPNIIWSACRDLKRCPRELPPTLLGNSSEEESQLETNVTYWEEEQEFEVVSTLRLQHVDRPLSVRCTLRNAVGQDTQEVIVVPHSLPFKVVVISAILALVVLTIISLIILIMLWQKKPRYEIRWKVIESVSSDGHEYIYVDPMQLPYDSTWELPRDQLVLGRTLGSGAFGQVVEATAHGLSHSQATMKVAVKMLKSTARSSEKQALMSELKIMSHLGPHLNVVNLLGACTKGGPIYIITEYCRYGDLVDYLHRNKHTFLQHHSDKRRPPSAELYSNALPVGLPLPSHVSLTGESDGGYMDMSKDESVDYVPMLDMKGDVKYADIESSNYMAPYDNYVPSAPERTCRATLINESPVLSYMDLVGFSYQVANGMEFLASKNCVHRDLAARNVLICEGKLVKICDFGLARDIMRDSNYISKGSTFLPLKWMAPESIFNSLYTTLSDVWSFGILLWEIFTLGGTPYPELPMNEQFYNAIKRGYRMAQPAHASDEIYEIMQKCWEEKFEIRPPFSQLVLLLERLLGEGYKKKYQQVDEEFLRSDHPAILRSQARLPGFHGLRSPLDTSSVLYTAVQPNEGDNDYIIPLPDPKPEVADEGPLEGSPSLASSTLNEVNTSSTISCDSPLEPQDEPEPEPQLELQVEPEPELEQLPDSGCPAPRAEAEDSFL
Method: as §1

[22] = molecular target: Pim-1(h) (Homo sapiens, UniProt P11309)
Method: as §1

[23] = molecular target: MINK(h) (Homo sapiens, UniProt Q8N4C8)
Method: as §1

[24] = molecular target: MSK2(h) (Homo sapiens, UniProt O75676)
Method: as §1

[25] = molecular target: CDK7/cyclinH/MAT1(h) (Homo sapiens, UniProt P50613)
Method: as §1

[26] = molecular target: Pyk2(h) (Homo sapiens, UniProt Q14289)
Method: as §1

[27] = molecular target: JNK2α2(h) (Homo sapiens, UniProt P45984)
Method: as §1

[28] = molecular target: Hck(h) (Homo sapiens, UniProt P08631)
Sequence of Hck(h) (P08631 whole entry): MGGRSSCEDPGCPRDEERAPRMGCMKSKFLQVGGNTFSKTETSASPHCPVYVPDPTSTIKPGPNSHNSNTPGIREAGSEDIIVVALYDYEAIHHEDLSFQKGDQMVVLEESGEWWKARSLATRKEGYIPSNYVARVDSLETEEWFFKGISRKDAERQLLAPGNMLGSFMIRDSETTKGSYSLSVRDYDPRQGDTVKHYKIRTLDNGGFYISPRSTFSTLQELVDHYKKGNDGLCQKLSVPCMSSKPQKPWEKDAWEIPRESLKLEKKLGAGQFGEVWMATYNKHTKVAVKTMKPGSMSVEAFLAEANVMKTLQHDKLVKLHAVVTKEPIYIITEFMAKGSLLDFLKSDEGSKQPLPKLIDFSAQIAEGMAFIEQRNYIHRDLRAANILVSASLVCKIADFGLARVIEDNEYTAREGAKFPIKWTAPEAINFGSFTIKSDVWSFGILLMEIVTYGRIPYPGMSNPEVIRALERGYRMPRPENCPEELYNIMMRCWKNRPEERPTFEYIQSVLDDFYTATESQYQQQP
Method: as §1

[29] = molecular target: Plk3(h) (Homo sapiens, UniProt Q9H4B4)
Method: as §1

[30] = molecular target: MSK1(h) (Homo sapiens, UniProt O75582)
Method: as §1

[31] = molecular target: Aurora-A(h) (Homo sapiens, UniProt O14965)
Sequence of Aurora-A(h) (O14965 whole entry): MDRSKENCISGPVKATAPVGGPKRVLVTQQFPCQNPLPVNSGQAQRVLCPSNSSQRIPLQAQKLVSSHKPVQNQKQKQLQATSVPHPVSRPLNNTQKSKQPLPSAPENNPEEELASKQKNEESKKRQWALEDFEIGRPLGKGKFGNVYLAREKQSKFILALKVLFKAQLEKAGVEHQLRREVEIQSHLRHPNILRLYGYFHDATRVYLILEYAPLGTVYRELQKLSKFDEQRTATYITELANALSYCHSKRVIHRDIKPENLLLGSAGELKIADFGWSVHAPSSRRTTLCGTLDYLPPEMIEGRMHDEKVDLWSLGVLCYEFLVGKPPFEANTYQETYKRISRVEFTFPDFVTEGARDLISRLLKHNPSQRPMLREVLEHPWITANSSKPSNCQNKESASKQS
Method: as §1

[32] = molecular target: SAPK3(h) (Homo sapiens, UniProt P53778)
Method: as §1

[33] = molecular target: FGFR3(h) (Homo sapiens, UniProt P22607)
Method: as §1

[34] = molecular target: PKCη(h) (Homo sapiens, UniProt P24723)
Method: as §1

[35] = molecular target: TAK1(h) (Homo sapiens, UniProt O43318)
Sequence of TAK1(h) (O43318 1-303 limits assumed): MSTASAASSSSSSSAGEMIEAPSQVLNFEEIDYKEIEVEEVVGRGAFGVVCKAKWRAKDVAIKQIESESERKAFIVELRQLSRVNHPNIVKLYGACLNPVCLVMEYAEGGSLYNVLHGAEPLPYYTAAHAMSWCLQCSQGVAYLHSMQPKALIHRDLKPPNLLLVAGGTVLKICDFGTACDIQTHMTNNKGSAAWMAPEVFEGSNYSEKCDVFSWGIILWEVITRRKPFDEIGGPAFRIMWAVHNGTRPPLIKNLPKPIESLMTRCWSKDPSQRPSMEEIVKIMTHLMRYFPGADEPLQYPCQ
Sequence of TAK1(h) (Q15750 437-504 partner limits assumed): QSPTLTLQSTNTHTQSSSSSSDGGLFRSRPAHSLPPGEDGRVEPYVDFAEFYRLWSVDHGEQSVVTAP
Method: as §1

[36] = molecular target: Lyn(h) (Homo sapiens, UniProt P07948)
Sequence of Lyn(h) (P07948 whole entry): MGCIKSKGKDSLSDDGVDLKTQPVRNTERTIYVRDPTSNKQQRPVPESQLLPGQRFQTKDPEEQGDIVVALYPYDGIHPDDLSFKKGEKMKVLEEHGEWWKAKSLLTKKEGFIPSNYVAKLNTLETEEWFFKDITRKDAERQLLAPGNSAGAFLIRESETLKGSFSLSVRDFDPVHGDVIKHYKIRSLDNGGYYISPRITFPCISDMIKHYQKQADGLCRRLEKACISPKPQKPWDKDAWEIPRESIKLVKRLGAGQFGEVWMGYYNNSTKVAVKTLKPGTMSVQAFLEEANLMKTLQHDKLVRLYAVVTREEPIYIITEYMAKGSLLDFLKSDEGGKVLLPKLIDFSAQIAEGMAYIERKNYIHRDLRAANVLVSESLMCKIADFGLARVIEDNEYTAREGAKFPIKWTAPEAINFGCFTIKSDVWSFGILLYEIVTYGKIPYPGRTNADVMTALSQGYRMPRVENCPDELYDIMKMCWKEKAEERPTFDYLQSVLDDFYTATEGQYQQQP
Method: as §1

[37] = molecular target: CHK1(h) (Homo sapiens, UniProt O14757)
Method: as §1

Which remaining activity at 0.2 µM [1] does the source give for `COc1cc(O)c2c(c1)[C@H]1O[C@@H]1C[C@H](O)[C@H](O)C(=O)/C=C\C[C@H](C)OC2=O` [Hypothemycin, hypothemycin] here?
The remaining activity at 0.2 µM was 99%.

What about the remaining activity at 0.2 µM ([2]; 0.2 μM) of the same compound?
Its remaining activity at 0.2 µM is 79%.

And the remaining activity at 2 µM ([2]; 2.0 μM)?
Its remaining activity at 2 µM is 10%.

And the remaining activity at 0.2 µM ([3]; 0.2 μM)?
Its remaining activity at 0.2 µM is 22%.

And the remaining activity at 2 µM ([3]; 2.0 μM)?
The remaining activity at 2 µM was 1%.

What about the remaining activity at 0.2 µM [4] of the same compound?
Its remaining activity at 0.2 µM is 98%.

What about the remaining activity at 0.2 µM [5] of the same compound?
The remaining activity at 0.2 µM was 107%.

What about the remaining activity at 0.2 µM [6] of the same compound?
Its remaining activity at 0.2 µM is 98%.

What about the remaining activity at 0.2 µM [7] of the same compound?
Its remaining activity at 0.2 µM is 99%.

What about the remaining activity at 0.2 µM ([8]; 0.2 μM) of the same compound?
The remaining activity at 0.2 µM was 93%.

And the remaining activity at 2 µM ([8]; 2.0 μM)?
The remaining activity at 2 µM was 21%.

And the remaining activity at 0.2 µM [9]?
The remaining activity at 0.2 µM was 99%.

What about the remaining activity at 0.2 µM [10] of the same compound?
Its remaining activity at 0.2 µM is 107%.

What about the remaining activity at 0.2 µM [11] of the same compound?
Its remaining activity at 0.2 µM is 99%.

What about the remaining activity at 0.2 µM [12] of the same compound?
Its remaining activity at 0.2 µM is 101%.

And the remaining activity at 0.2 µM [13]?
The remaining activity at 0.2 µM was 104%.

And the remaining activity at 0.2 µM ([14]; 0.2 μM)?
The remaining activity at 0.2 µM was 31%.

And the remaining activity at 2 µM ([14]; 2.0 μM)?
Its remaining activity at 2 µM is -2%.

What about the remaining activity at 0.2 µM [15] of the same compound?
Its remaining activity at 0.2 µM is 111%.

And the remaining activity at 0.2 µM ([16]; 0.2 μM)?
Its remaining activity at 0.2 µM is 6%.

And the remaining activity at 2 µM ([16]; 2.0 μM)?
Its remaining activity at 2 µM is 3%.

What about the remaining activity at 0.2 µM [17] of the same compound?
The remaining activity at 0.2 µM was 82%.

And the remaining activity at 0.2 µM [18]?
Its remaining activity at 0.2 µM is 76%.

What about the remaining activity at 0.2 µM [19] of the same compound?
Its remaining activity at 0.2 µM is 104%.

What about the remaining activity at 0.2 µM ([20]; 0.2 μM) of the same compound?
Its remaining activity at 0.2 µM is 77%.

What about the remaining activity at 2 µM ([20]; 2.0 μM) of the same compound?
Its remaining activity at 2 µM is 20%.

And the remaining activity at 0.2 µM ([21]; 0.2 μM)?
The remaining activity at 0.2 µM was 73%.

And the remaining activity at 2 µM ([21]; 2.0 μM)?
The remaining activity at 2 µM was 40%.

And the remaining activity at 0.2 µM [22]?
Its remaining activity at 0.2 µM is 100%.

And the remaining activity at 0.2 µM [23]?
Its remaining activity at 0.2 µM is 88%.

What about the remaining activity at 0.2 µM [24] of the same compound?
The remaining activity at 0.2 µM was 101%.

And the remaining activity at 0.2 µM [25]?
The remaining activity at 0.2 µM was 101%.

And the remaining activity at 0.2 µM [26]?
The remaining activity at 0.2 µM was 84%.

And the remaining activity at 0.2 µM [27]?
Its remaining activity at 0.2 µM is 93%.

What about the remaining activity at 0.2 µM ([28]; 0.2 μM) of the same compound?
Its remaining activity at 0.2 µM is 78%.

What about the remaining activity at 2 µM ([28]; 2.0 μM) of the same compound?
Its remaining activity at 2 µM is 91%.

What about the remaining activity at 0.2 µM [29] of the same compound?
The remaining activity at 0.2 µM was 101%.

What about the remaining activity at 0.2 µM [30] of the same compound?
Its remaining activity at 0.2 µM is 87%.

What about the remaining activity at 0.2 µM ([31]; 0.2 μM) of the same compound?
The remaining activity at 0.2 µM was 87%.

What about the remaining activity at 2 µM ([31]; 2.0 μM) of the same compound?
Its remaining activity at 2 µM is 91%.

What about the remaining activity at 0.2 µM [32] of the same compound?
The remaining activity at 0.2 µM was 104%.

What about the remaining activity at 0.2 µM [33] of the same compound?
Its remaining activity at 0.2 µM is 102%.

What about the remaining activity at 0.2 µM [34] of the same compound?
The remaining activity at 0.2 µM was 97%.

And the remaining activity at 0.2 µM ([35]; 0.2 μM)?
The remaining activity at 0.2 µM was 12%.

And the remaining activity at 2 µM ([35]; 2.0 μM)?
The remaining activity at 2 µM was 5%.

What about the remaining activity at 0.2 µM ([36]; 0.2 μM) of the same compound?
The remaining activity at 0.2 µM was 82%.

What about the remaining activity at 2 µM ([36]; 2.0 μM) of the same compound?
The remaining activity at 2 µM was 83%.

And the remaining activity at 0.2 µM [37]?
The remaining activity at 0.2 µM was 94%.
